This passage reports IC50 results from patent publication US20090270350A1, “Pyridinone Pyrazole Urea and Pyrimidinone Pyrazole Urea Derivatives” (PFIZER INC., priority 2006, published 2009).

For the first assay, the target named is p38α (Homo sapiens, UniProt Q16539). The assay can be described thus: p38α/MK2 cascade assay. Type of assay: biochemical. To be noted: Table 1; inhibitors preincubated with p38α for 40 minutes; phosphorylation of Hsp27 peptide by MK-2, Caliper LabChip 3000; read-out: p38a/MK2 Cascade 40 min Pre-Incuabtion (% Inhibition): IC50. Here is the method: The ability of compounds to inhibit activated p38α was determined in a p38α/MK-2 cascade assay format. The kinase activity of p38α is determined by its ability to phosphorylate/activate nonactive MK2 (54-400). Activation of MK-2 by p38α is measured by following the phosphorylation of a MK-2 specific peptide, Hsp27 peptide (FITC-KKKALSRQLSVAA). The phosphorylation of the Hsp27 peptide was quantified using the Caliper LabChip 3000. The kinase reactions were carried out in 20 mM HEPES pH 7.5, 10 mM MgCl2, 0.0005% Tween-20, 0.01% BSA, 1 mM DTT, and 2% DMSO. The inhibitors were varied between 1000-0.05 nM, while the Hsp27 peptide substrate, MgATP, and nonactive MK-2 (54-400) were held constant at 0.5 µM, 5 µM, and 1 nM, respectively. Inhibitors were preincubated with p38α for 40 minutes prior to initiating the reaction with peptide, MgATP, and MK-2. The kinase reactions were quenched after 60 minutes by the addition of stop buffer (180 mM HEPES, 30 mM EDTA, and 0.2% Coating Reagent-3).
p38α, sequence (Q16539 whole entry): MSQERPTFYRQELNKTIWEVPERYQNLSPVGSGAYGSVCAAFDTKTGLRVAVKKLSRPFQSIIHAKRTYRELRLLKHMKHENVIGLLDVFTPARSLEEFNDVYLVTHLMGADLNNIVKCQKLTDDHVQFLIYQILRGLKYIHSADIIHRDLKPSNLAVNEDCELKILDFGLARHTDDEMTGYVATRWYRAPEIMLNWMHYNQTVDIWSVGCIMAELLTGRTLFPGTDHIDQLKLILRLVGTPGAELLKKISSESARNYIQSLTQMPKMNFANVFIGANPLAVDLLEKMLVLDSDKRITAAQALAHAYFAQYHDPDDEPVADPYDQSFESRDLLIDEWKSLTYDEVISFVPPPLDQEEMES
The above protocol assay was used to determine the IC50 values for some of the compounds in the above Examples.
IC50 values were determined for the compounds listed in Table 2, using the same p38α/MK2 cascade assay used to determine the IC50 values for the compounds in Table 1. The compounds of Table 2 were prepared using methods similar to those listed in the Examples for compounds of Table 1.
Turning to `CCc1c(OCc2ccccc2CNC(=O)Nc2cc(C(C)(C)C)nn2-c2ccccc2)ncn(Cc2ccccc2)c1=O` [Example 113, 1-(2-{[(1-benzyl-5-ethyl-6-oxo-1,6-dihydropyrimidin-4-yl)oxy]methyl}benzyl)-3-(3-tert-butyl-1-phenyl-1H-pyrazol-5-yl)urea], the IC50 is 10 nM.

With `COc1cccc(Cn2c(C)cc(OCc3ccccc3CNC(=O)Nc3cc(C(C)(C)C)nn3-c3cccc(OCCO)c3)c(C)c2=O)c1` [Example 48, 1-{3-tert-butyl-1-[3-(2-hydroxyethoxy)phenyl]-1H-pyrazol-5-yl}-3-[2-({[1-(3-methoxybenzyl)-3,6-dimethyl-2-oxo-1,2-dihydropyridin-4-yl]oxy}methyl)benzyl]urea], the IC50 stood at 6.4 nM.

On to `Cc1cc(OCc2ccccc2CNC(=O)Nc2cc(C(C)(C)C)nn2-c2cccc(Cl)c2)c(Br)c(=O)n1Cc1ccccc1` [Example 108, 1-(2-{[(1-benzyl-3-bromo-6-methyl-2-oxo-1,2-dihydropyridin-4-yl)oxy]methyl}benzyl)-3-[3-tert-butyl-1-(3-chlorophenyl)-1H-pyrazol-5-yl]urea], for which the IC50 was found to be 3.71 nM.

As to `COc1ccc(Cn2c(C)cc(OCc3ccccc3CNC(=O)Nc3cc(C(C)(C)C)nn3-c3cccc(F)c3)c(Br)c2=O)c(OC)c1` [Example 117, 1-[2-({[3-bromo-1-(2,4-dimethoxybenzyl)-6-methyl-2-oxo-1,2-dihydropyridin-4-yl]oxy}methyl)benzyl]-3-[3-tert-butyl-1-(3-fluorophenyl)-1H-pyrazol-5-yl]urea], the IC50 was determined as 15.7 nM.

Staying with this assay, now noted: Table 2; same p38α/MK2 cascade assay; 40 minutes preincubation; read-out: p38a/MK2 Cascade 40 min Pre-Incuabtion (% Inhibition): IC50.
As for `COc1cc(Cn2c(C)cc(OCc3ccccc3CNC(=O)Nc3cc(C(C)(C)C)nn3-c3cccc(OCCO)c3)c(Cl)c2=O)ccc1Cl` [Example 255, 1-{3-tert-butyl-1-[3-(2-hydroxyethoxy)phenyl]-1H-pyrazol-5-yl}-3-[2-({[3-chloro-1-(4-chloro-3-methoxybenzyl)-6-methyl-2-oxo-1,2-dihydropyridin-4-yl]oxy}methyl)benzyl]urea], the IC50 worked out at 7.2 nM.

Regarding `COc1ccccc1Cn1c(C)cc(OCc2ccccc2CNC(=O)Nc2cc(C(C)(C)SC)nn2-c2cccc(O)c2)c(Cl)c1=O` [Example 276, 1-[2-({[3-chloro-1-(2-methoxybenzyl)-6-methyl-2-oxo-1,2-dihydropyridin-4-yl]oxy}methyl)benzyl]-3-{1-(3-hydroxyphenyl)-3-[1-methyl-1-(methylthio)ethyl]-1H-pyrazol-5-yl}ure], the IC50 is 20.5 nM.

For `COc1ccc(Cn2c(C)cc(OCc3ccccc3CNC(=O)Nc3cc(C(C)(C)C)nn3-c3ccc(C)cc3)c(C)c2=O)c(OC)c1` [Example 245, 1-[3-tert-butyl-1-(4-methylphenyl)-1H-pyrazol-5-yl]-3-[2-({[1-(2,4-dimethoxybenzyl)-3,6-dimethyl-2-oxo-1,2-dihydropyridin-4-yl]oxy}methyl)benzyl]urea], the IC50 came out at 13.4 nM.

For the compound `Cc1ccc(-n2nc(C(C)(C)C)cc2NC(=O)NCc2cc(F)ccc2COc2cc(C)n(-c3cc(C(=O)O)ccc3C)c(=O)c2Br)cc1` [Example 207, 3-{3-bromo-4-[(2-{[({[3-tert-butyl-1-(4-methylphenyl)-1H-pyrazol-5-yl]amino}carbonyl)-amino]methyl}-4-fluorobenzyl)oxy]-6-methyl-2-oxopyridin-1(2H)-yl}-4-methylbenzoic acid], the IC50 is 4.54 nM.

`CNC(=O)c1ccc(C)c(-n2c(C)cc(OCc3ccc(F)cc3CNC(=O)Nc3cc(C(C)(C)C)nn3-c3ccc(C)cc3)c(Br)c2=O)c1` [Example 279, 3-{3-bromo-4-[(2-{[({[3-tert-butyl-1-(4-methylphenyl)-1H-pyrazol-5-yl]amino}carbonyl)-amino]methyl}-4-fluorobenzyl)oxy]-6-methyl-2-oxopyridin-1(2H)-yl}-N,4-dimethylbenzamide]: the IC50 was 3.67 nM.

Take `COc1ccc(Cn2c(C)cc(OCc3ccc(F)cc3CNC(=O)Nc3cc(C(C)(C)C)nn3-c3ccc(Cl)c(O)c3)c(Cl)c2=O)cc1` [Example 202, 1-[3-tert-butyl-1-(4-chloro-3-hydroxyphenyl)-1H-pyrazol-5-yl]-3-[2-({[3-chloro-1-(4-methoxy-benzyl)-6-methyl-2-oxo-1,2-dihydropyridin-4-yl]oxy}methyl)-5-fluorobenzyl]urea]: the IC50 amounted to 3.1 nM.

As to `Cc1ccc(C(=O)NCC(O)CO)cc1-n1c(C)cc(OCc2ccccc2CNC(=O)Nc2cc(C(C)(C)C)nn2-c2ccc(O)c(Cl)c2)c(Cl)c1=O` (centres unmarked) [Example 227, 3-{4-[(2-{[({[3-tert-butyl-1-(3-chloro-4-hydroxyphenyl)-1H-pyrazol-5-yl]amino}carbonyl)amino]methyl}benzyl)oxy]-3-chloro-6-methyl-2-oxopyridin-1(2H)-yl}-N-(2,3-dihydroxy-propyl)-4-methylbenzamide], the IC50 worked out at 2 nM.

As to `COc1ccc(Cn2c(C)cc(OCc3ccccc3CNC(=O)Nc3cc(C(C)(C)C)nn3-c3ccccc3)c(C)c2=O)c(OC)c1` [Example 243, 1-(3-tert-butyl-1-phenyl-1H-pyrazol-5-yl)-3-[2-({[1-(2,4-dimethoxybenzyl)-3,6-dimethyl-2-oxo-1,2-dihydropyridin-4-yl]oxy}methyl)benzyl]urea], the IC50 is 9.54 nM.

Turning to `Cc1ccc(C(=O)N[C@@H](C)C(N)=O)cc1-n1c(C)cc(OCc2ccccc2CNC(=O)Nc2cc(C(C)(C)C)nn2-c2ccc(O)cc2)c(Cl)c1=O` [Example 220, N-[(1S)-2-amino-1-methyl-2-oxoethyl]-3-{4-[(2-{[({[3-tert-butyl-1-(4-hydroxyphenyl)-1H-pyrazol-5-yl]amino}carbonyl)-amino]methyl}benzyl)oxy]-3-chloro-6-methyl-2-oxopyridin-1(2H)-yl}-4-methylbenzamide], the IC50 is 1.4 nM.

With `COc1ccc(Cn2c(C)cc(OCc3ccccc3CNC(=O)Nc3cc(C(C)(C)C)nn3-c3ccc(O)c(Cl)c3)c(C)c2=O)cc1C#N` [Example 249, 1-[3-tert-butyl-1-(3-chloro-4-hydroxyphenyl)-1H-pyrazol-5-yl]-3-[2-({[1-(3-cyano-4-methoxybenzyl)-3,6-dimethyl-2-oxo-1,2-dihydropyridin-4-yl]oxy}methyl)benzyl]urea], the IC50 came out at 9.6 nM.

Regarding `COc1cccc(Cn2c(C)cc(OCc3ccccc3CNC(=O)Nc3cc(C(C)(C)C)nn3-c3ccc(O)c(Cl)c3)c(Cl)c2=O)c1` [Example 215, 1-[3-tert-butyl-1-(3-chloro-4-hydroxyphenyl)-1H-pyrazol-5-yl]-3-[2-({[3-chloro-1-(3-methoxy-benzyl)-6-methyl-2-oxo-1,2-dihydropyridin-4-yl]oxy}methyl)-benzyl]urea], the IC50 came out at 8 nM.

For `COc1ccc(Cn2c(C)cc(OCc3ccccc3CNC(=O)Nc3cc(C(C)(C)C)nn3-c3ccc(O)cc3)c(C)c2=O)cc1Cl` [Example 267, 1-[3-tert-butyl-1-(4-hydroxyphenyl)-1H-pyrazol-5-yl]-3-[2-({[1-(3-chloro-4-methoxybenzyl)-3,6-dimethyl-2-oxo-1,2-dihydro-pyridin-4-yl]oxy}methyl)benzyl]urea], the IC50 turned out to be 16.2 nM.

On to `CNC(=O)c1ccc(C)c(-n2c(C)cc(OCc3ccccc3CNC(=O)Nc3cc(C(C)(C)C)nn3-c3cccc(OCCO)c3)c(Cl)c2=O)c1` [Example 211, 3-[4-{[2-({[({3-tert-butyl-1-[3-(2-hydroxyethoxy)phenyl]-1H-pyrazol-5-yl}amino)carbonyl]amino}methyl)benzyl]oxy}-3-chloro-6-methyl-2-oxopyridin-1(2H)-yl]-N,4-dimethylbenzamide], for which the IC50 stood at 2.6 nM.

For the compound `COc1ccc(Cn2c(C)cc(OCc3ccccc3CNC(=O)Nc3cc(C(C)(C)C)nn3-c3ccccc3)c(C)c2=O)cc1` [Example 237, 1-(3-tert-butyl-1-phenyl-1H-pyrazol-5-yl)-3-[2-({[1-(4-methoxybenzyl)-3,6-dimethyl-2-oxo-1,2-dihydropyridin-4-yl]oxy}methyl)benzyl]urea], the IC50 came to 11.2 nM.

Regarding `COc1ccc(Cn2c(C)cc(OCc3ccccc3CNC(=O)Nc3cc(C(C)(C)C)nn3-c3cccc(OCCO)c3)c(Cl)c2=O)cc1Cl` [Example 265, 1-{3-tert-butyl-1-[3-(2-hydroxyethoxy)phenyl]-1H-pyrazol-5-yl}-3-[2-({[3-chloro-1-(3-chloro-4-methoxybenzyl)-6-methyl-2-oxo-1,2-dihydropyridin-4-yl]oxy}methyl)benzyl]urea], the IC50 is 8.4 nM.

As for `Cc1ccc(C(=O)NCCN(C)C)cc1-n1c(C)cc(OCc2ccccc2CNC(=O)Nc2cc(C(C)(C)C)nn2-c2cccc(OCCO)c2)c(Cl)c1=O` [Example 240, 3-[4-{[2-({[({3-tert-butyl-1-[3-(2-hydroxyethoxy)phenyl]-1H-pyrazol-5-yl}amino)carbonyl]amino}methyl)benzyl]oxy}-3-chloro-6-methyl-2-oxopyridin-1(2H)-yl]-N-[2-(dimethylamino)-ethyl]-4-methylbenzamide], the IC50 was found to be 2.1 nM.
